In test [1] the test system is BV-2. Description: Antiinflammatory activity in mouse BV2 cells assessed as inhibition of LPS-induced nitric oxide production after 24 hrs by Griess assay. Type of test: functional, cell-based. The conditions noted are these: BV-2, 24 h. For orientation: Griess reagent forms a coloured azo dye with nitrite.
Test [2] concerns HepG2. Nature of the test: Hepatoprotective activity against APAP-induced cell injury in human HepG2 cells assessed as survival rate at 10 uM after 48 hrs by MTT assay relative to control. Type of test: functional. The conditions noted are these: HepG2, 48 h, read-out: Survival. (Tetrazolium assays rely on reduction of a dye to a coloured formazan, in cell work by metabolically active cells.)

For orientation: IC50 means the concentration that gives 50% inhibition. In the case of `CC1=CC(=O)C=C(CO)[C@@]12CC[C@@H](C(C)(C)O[C@@H]1O[C@H](CO)[C@@H](O)[C@H](O)[C@H]1O)C2`, the IC50 in test [1] amounted to 11.4 µM.

`CC1=CC(=O)C=C(CO)[C@@]12CC[C@@H](C(C)(C)O[C@@H]1O[C@H](CO[C@@H]3OC[C@](O)(CO)[C@H]3O)[C@@H](O)[C@H](O)[C@H]1O)C2`: the viability at 10 µM in test [2] worked out at 58.2%.

Consider `COC(=O)c1cc(OC)c2c(c1-c1c(CO)cc(OC)c3c1OCO3)OCO2` [BICYCLOL], for which the viability at 10 µM in test [2] came to 52.9%.

As to `COc1cc(/C=C/C(=O)CC(=O)/C=C/c2ccc(O)c(OC)c2)ccc1O` [CURCUMIN], in test [1], the IC50 was determined as 4.77 µM.

Source of the values: ChEMBL document CHEMBL4000153, “Bioactive Sesquiterpenoid and Polyacetylene Glycosides from Atractylodes lancea” (J Nat Prod, 2016).
